# Measured values published in ChEMBL document CHEMBL1201862, “PubChem BioAssay data set” (2004).
# Active and inactive are the calls of the source.
# Tests used:
# [1] = target: Sphingosine 1-phosphate receptor 4 (Homo sapiens, UniProt O95977); test: Fluorescence dose response cell-based high throughput screening assay for antagonists of the Sphingosine 1-Phosphate Receptor 4 (S1P4). [Related pubchem assays: 1524 (Confirmation in triplicates.), 1510 (Primary screen.)]; format: functional
# [2] = target: Sphingosine 1-phosphate receptor 1 (Homo sapiens, UniProt P21453); format: functional;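 further: Tango beta-arrestin reporter U2OS cells stimulated with S1P near its EC80; inhibitor potency meaning antagonism of receptor activation by the natural agonist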
# Sphingosine 1-phosphate receptor 1, sequence (P21453 whole entry): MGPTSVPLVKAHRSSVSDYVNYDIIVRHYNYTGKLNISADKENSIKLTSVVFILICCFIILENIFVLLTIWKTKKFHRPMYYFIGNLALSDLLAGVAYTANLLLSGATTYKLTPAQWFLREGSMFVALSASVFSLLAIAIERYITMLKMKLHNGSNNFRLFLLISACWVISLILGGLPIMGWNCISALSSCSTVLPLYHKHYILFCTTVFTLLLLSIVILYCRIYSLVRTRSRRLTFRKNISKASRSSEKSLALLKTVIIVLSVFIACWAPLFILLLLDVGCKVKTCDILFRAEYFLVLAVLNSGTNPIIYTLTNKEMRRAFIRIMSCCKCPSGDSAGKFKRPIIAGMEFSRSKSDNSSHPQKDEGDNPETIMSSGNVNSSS
# Estrogen receptor [3] = target: T1, Estrogen receptor (Homo sapiens, UniProt P03372);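 further: potency for inhibiting coactivator peptide recruitment to the receptor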
# T1 sequence (P03372 whole entry): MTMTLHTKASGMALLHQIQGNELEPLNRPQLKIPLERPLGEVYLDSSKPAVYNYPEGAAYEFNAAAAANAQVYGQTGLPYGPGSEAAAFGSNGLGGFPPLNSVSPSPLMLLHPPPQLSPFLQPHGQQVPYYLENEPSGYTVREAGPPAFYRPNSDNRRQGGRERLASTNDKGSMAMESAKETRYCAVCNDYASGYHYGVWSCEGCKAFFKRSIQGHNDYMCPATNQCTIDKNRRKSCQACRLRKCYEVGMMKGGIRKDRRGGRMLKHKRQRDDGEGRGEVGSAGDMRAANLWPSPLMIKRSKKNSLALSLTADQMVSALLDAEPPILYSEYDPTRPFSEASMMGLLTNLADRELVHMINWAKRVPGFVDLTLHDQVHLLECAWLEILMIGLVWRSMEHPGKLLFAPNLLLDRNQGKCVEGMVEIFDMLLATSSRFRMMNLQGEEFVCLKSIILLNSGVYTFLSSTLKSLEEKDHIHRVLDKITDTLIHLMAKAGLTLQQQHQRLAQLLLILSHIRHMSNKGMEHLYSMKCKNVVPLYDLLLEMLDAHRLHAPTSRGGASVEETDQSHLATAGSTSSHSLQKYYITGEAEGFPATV
# [4] = target: T2, Heat shock 70 kDa protein 1A (Homo sapiens, UniProt P0DMV8); test: small molecules displacing fluorescent ligand from Hsp70 – biochemical, fluorescence polarization, primary screen (AID 583)
# T2 sequence (P0DMV8 whole entry): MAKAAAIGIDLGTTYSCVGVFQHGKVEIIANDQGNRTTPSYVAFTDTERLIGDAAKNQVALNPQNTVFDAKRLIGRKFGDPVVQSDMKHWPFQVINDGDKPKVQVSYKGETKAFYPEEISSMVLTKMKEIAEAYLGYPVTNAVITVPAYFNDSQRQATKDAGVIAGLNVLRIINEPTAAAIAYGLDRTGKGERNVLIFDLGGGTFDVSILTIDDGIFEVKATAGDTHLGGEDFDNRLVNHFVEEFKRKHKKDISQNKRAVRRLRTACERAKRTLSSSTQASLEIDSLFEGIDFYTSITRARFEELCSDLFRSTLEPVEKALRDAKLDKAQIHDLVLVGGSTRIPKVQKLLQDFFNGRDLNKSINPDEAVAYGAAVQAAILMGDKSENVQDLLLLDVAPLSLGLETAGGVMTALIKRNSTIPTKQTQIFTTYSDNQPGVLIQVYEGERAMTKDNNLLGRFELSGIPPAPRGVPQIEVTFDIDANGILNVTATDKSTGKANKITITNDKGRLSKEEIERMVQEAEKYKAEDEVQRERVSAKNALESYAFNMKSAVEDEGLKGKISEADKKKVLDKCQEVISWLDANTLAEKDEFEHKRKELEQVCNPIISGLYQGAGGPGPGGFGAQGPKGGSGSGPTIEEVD
# Estrogen receptor beta [5] = target: T3, Estrogen receptor beta (Homo sapiens, UniProt Q92731); test: blockers of SRC-3 recruitment to ERβ – biochemical, ELISA, streptavidin-HRP readout, orthogonal assay, confirmation (AID 1060)
# T3 sequence (Q92731 whole entry): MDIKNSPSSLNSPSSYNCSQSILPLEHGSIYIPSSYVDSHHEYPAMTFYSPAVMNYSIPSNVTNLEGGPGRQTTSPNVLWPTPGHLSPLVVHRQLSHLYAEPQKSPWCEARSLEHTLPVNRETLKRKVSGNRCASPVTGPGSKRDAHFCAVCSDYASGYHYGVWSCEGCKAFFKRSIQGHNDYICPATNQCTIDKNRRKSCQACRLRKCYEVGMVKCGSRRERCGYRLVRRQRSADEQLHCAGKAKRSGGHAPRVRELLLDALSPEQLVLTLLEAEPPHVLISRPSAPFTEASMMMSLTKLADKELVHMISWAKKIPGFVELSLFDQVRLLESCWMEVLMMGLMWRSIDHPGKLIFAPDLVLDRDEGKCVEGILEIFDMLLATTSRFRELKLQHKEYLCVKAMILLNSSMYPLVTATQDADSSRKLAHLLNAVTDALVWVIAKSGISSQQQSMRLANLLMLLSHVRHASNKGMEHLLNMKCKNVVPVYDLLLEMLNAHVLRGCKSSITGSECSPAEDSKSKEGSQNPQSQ
# [6] = Luminescence Cell-Based Dose Retest to Confirm Inhibitors of Cancer Stem Cells. [Related pubchem assays (depositor defined):AID2717, AID2721]; format: functional; details: Homo sapiens
# [7] = target: T2, Heat shock 70 kDa protein 1A; test: small-molecule inhibition of Hsp70 – biochemical, TR-FRET (AID 786)
# Estrogen receptor beta [8] = target: T3, Estrogen receptor beta
# [9] = target: T4, Neuropeptide Y receptor type 2 (Homo sapiens, UniProt P49146); test: IC50 for human NPY-Y2 blockade – cell-based, counter-screen for NPY-Y1 antagonist project, dose response (AID 1278); format: functional
# T4 sequence (P49146 whole entry): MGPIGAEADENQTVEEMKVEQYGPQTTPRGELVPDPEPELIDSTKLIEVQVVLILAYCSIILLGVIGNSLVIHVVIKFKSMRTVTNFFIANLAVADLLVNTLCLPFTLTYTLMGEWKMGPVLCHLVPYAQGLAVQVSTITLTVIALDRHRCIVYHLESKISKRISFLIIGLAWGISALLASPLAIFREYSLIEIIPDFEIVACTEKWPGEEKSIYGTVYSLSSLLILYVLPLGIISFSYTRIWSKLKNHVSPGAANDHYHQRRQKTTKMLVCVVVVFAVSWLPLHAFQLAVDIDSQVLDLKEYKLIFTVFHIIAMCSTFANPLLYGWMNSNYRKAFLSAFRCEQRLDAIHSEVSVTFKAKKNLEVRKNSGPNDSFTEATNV
# [10] = target: T5, Neuropeptide Y receptor type 1 (Homo sapiens, UniProt P25929); test: IC50 of human NPY-Y1 blockers – cell-based, dose response (AID 1277); format: functional
# T5 sequence (P25929 whole entry): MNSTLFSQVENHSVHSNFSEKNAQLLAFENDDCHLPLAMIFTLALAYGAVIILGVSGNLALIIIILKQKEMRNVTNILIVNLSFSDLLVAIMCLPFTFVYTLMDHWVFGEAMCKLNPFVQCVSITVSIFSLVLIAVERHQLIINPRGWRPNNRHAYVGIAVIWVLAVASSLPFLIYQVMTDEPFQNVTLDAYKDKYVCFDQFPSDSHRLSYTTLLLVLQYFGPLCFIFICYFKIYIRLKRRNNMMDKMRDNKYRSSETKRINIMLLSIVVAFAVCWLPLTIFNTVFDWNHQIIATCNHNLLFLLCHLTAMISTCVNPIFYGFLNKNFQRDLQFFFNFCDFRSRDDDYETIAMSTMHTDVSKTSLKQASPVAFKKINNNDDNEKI
# H4 = test: Luminescence Cell-Based Dose Response HTS to Identify Activators of 5'UTR Stem-Loop Driven Prion Protein mRNA Translation in H4 Neuroglioblastoma Cells. [Related pubchem assays: 1829 (Project Summary), 1814 (Primary HTS)]; format: functional; details: Homo sapiens
# [11] = target: T6, Orexin/Hypocretin receptor type 1 (Homo sapiens, UniProt O43613); test: Homogeneous Time Resolved Fluorescence (HTRF)-based cell-based high throughput dose response assay for antagonists of the orexin 1 receptor (OX1R; HCRTR1). [Related pubchem assays (depositor defined):AID434989, AID435008, AID463079, AID485270, AID492963, AID492964, AID492965, AID493232, AID504717, AID504718]; format: functional
# T6 sequence (O43613 whole entry): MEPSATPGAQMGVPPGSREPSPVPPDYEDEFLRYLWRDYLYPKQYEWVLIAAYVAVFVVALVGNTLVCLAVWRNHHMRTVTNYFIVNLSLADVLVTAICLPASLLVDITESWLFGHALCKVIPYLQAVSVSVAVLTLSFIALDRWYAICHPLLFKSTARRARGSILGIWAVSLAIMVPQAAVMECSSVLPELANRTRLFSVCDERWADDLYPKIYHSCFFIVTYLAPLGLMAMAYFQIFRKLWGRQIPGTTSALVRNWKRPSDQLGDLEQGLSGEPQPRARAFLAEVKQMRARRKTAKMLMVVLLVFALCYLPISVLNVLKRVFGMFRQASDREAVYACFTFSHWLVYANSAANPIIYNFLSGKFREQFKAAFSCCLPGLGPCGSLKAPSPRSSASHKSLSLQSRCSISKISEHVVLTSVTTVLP
# [12] = target: Peroxisome proliferator-activated receptor gamma/Nuclear receptor coactivator 2 (Homo sapiens, UniProt P37231); format: functional;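 further: agonist potency for raising coactivator recruitment to the receptor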
# Cytochrome P450 2C9 = Cytochrome P450 2C9 (Homo sapiens, UniProt P11712)
# Cytochrome P450 2C9, sequence (P11712 whole entry): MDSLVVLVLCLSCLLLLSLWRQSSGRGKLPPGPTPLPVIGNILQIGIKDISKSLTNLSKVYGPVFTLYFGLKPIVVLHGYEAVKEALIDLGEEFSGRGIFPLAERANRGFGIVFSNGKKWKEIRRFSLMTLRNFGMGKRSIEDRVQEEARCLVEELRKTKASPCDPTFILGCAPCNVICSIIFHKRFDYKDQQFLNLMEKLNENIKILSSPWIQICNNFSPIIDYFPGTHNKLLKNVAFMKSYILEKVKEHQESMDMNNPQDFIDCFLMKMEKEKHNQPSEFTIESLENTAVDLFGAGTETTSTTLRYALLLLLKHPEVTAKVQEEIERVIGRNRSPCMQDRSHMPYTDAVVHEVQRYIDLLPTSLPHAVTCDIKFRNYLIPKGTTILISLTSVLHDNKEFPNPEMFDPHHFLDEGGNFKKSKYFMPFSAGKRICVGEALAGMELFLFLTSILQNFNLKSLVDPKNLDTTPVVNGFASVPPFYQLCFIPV
# Cytochrome P450 3A4 = Cytochrome P450 3A4 (Homo sapiens, UniProt P08684);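 further: CYP3A4 tested as one member of a cytochrome P450 panel screen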
# Cytochrome P450 3A4, sequence (P08684 whole entry): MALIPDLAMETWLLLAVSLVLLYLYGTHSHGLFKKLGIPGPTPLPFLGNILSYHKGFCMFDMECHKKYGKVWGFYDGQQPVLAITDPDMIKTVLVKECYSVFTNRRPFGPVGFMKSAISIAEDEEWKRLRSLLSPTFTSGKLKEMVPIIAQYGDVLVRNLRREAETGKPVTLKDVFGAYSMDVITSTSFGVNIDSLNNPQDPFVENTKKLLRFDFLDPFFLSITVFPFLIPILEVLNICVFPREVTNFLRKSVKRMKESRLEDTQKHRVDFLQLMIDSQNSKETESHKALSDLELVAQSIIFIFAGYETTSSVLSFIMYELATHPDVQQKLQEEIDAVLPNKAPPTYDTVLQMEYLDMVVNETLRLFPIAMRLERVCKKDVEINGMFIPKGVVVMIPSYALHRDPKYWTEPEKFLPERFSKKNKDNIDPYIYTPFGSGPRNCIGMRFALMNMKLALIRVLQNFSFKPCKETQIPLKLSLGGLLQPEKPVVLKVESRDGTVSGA
# Orexin receptor type 2 [13] = target: T7, Orexin receptor type 2 (Homo sapiens, UniProt O43614); test: Counterscreen assay for antagonists of the orexin 1 receptor (OX1R; HCRTR1): Homogeneous Time Resolved Fluorescence (HTRF)-based cell-based dose response assay for antagonists of the orexin 2 receptor (OX2R; HCRTR2), run by assay provider.; format: functional
# T7 sequence (O43614 whole entry): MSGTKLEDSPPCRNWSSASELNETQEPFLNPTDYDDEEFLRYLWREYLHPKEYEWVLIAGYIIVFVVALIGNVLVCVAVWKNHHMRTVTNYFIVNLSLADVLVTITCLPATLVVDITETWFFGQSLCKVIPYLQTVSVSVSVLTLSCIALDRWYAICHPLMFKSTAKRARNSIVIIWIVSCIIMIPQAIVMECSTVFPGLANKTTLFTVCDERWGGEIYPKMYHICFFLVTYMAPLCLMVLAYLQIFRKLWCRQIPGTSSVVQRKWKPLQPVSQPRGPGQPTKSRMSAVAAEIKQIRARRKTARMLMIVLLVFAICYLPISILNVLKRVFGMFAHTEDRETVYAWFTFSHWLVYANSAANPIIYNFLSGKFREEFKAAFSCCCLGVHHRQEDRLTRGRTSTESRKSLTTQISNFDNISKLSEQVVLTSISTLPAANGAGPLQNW
# [14] = target: Peroxisome proliferator-activated receptor gamma/Nuclear receptor coactivator 3 (Homo sapiens, UniProt P37231); format: functional;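 further: agonist potency for raising coactivator recruitment to the receptor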
# [15] = (§1) Counterscreen for antagonists of the orexin 1 receptor (OX1R; HCRTR1): Fluorescence-based cell-based high throughput dose response assay to identify antagonists of the parental CHO cell line. [Related pubchem assays (depositor defined):AID434989, AID435008, AID463079, AID485270, AID492963, AID492964, AID492965, AID493232, AID504699, AID504701]; format: functional
# CHO-K1 = test: as §1, with “Homogeneous time resolved fluorescence (HTRF)-based” for “Fluorescence-based”, “cell-based” for “cell-based high throughput”, “CHO-K1” for “CHO”; format: functional; details: Cricetulus griseus;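 further: potency for inhibition of ATP-stimulated IP1 production as antagonists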
# Cytochrome P450 2C19 = Cytochrome P450 2C19 (Homo sapiens, UniProt P33261); test: Cytochrome panel assay with activity outcomes. Panel member name: p450-cyp2c19 Compounds with AC50 equal or less than 10 uM are considered active; format: functional; details: read-out: AC50
# Cytochrome P450 2C19, sequence (P33261 whole entry): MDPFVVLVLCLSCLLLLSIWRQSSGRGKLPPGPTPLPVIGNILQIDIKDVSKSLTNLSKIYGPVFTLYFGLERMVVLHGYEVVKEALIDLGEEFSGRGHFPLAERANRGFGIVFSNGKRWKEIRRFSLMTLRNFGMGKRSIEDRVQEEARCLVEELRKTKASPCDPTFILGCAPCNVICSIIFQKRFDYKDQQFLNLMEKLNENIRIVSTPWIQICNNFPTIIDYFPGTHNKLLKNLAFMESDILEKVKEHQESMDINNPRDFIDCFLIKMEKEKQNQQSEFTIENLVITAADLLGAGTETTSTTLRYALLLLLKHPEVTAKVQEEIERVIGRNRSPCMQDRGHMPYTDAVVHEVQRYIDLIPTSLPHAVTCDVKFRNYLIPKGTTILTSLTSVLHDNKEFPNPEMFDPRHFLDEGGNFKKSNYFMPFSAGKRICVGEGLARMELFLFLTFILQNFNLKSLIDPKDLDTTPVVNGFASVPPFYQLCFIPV
# Orexin receptor type 2 [16] = target: T7, Orexin receptor type 2; test: Counterscreen assay for antagonists of the orexin 1 receptor (OX1R; HCRTR1): Fluorescence-based cell-based dose response assay for antagonists of the orexin 2 receptor (OX2R; HCRTR2), run by assay provider.; format: functional
# [17] = target: T6, Orexin/Hypocretin receptor type 1; test: Fluorescence-based cell-based high throughput dose response assay for antagonists of the orexin 1 receptor (OX1R; HCRTR1). [Related pubchem assays (depositor defined):AID434989, AID435008, AID463079, AID485270, AID492963, AID492964, AID492965, AID493232, AID504717, AID504718]; format: functional
# [18] = target: Peroxisome proliferator-activated receptor gamma/Nuclear receptor coactivator 1 (Homo sapiens, UniProt P37231); format: functional;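 further: agonist potency as compounds enhance coactivator SRC-1 recruitment to PPARgamma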
# [19] = HIV-1 Vif–A3G interaction blockers – biochemical, TR-FRET, GST-Vif 1-94, biotin-A3G peptide, dose response retest, primary screen (AID 1117319); format: functional;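 further: TR-FRET signal of purified GST-Vif binding a biotinylated A3G peptide; inhibitors lower the FRET signal by blocking Vif and A3G binding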
# [20] = target: Protein-tyrosine kinase 2-beta (Homo sapiens, UniProt Q14289);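 further: potency of inhibitors of PYK2 kinase phosphorylation of poly-GT substrate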
# Protein-tyrosine kinase 2-beta, sequence (Q14289 whole entry): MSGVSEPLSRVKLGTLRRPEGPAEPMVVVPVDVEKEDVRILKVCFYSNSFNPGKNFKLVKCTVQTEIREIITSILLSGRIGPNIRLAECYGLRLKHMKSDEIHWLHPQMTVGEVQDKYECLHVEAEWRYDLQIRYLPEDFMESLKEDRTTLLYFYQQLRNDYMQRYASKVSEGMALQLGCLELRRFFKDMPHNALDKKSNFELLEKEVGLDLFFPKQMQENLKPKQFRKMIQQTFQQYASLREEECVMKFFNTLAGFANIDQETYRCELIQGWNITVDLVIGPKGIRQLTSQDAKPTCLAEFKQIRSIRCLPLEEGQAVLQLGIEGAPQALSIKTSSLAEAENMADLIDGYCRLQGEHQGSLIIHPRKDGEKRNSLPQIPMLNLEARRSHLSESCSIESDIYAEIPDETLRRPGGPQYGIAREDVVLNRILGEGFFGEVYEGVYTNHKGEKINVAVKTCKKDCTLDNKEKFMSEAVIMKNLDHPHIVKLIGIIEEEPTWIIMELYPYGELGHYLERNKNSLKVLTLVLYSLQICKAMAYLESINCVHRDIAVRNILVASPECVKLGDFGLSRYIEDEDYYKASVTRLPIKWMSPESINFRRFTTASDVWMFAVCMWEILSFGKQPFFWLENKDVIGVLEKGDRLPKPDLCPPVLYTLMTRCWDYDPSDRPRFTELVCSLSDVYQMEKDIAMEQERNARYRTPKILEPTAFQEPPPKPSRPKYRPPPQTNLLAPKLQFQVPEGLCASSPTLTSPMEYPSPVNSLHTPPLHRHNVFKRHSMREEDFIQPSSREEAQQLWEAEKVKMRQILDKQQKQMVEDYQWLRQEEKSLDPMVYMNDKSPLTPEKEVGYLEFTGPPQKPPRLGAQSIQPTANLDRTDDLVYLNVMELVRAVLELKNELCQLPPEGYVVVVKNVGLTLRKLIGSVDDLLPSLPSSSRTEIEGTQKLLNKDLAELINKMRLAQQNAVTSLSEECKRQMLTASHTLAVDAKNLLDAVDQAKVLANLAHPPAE
# [21] = Luminescence Cell-Based Dose Confirmation HTS to Identify Activators of 5'UTR Stem-Loop Driven Alpha-Synuclein mRNA Translation in H4 Neuroglioblastoma Cells. [Related pubchem assays: 1829 (Project Summary), 1814 (Primary HTS)]; format: functional
# [22] = Luminescence Cell-Based Dose Response HTS to Identify Activators of Luciferase Translation or Activity in H4 […] Cells. [Related pubchem assays: 1829 (Project Summary), 1814 (Primary HTS)]; format: functional
# Bcl-2-like protein 10 = target: T8, Bcl-2-like protein 10 (Homo sapiens, UniProt Q9HD36); test: Concentration-response of Bcl-B inhibitors by biochemical FP with TR3 (AID 1243); format: functional
# T8 sequence (Q9HD36 whole entry): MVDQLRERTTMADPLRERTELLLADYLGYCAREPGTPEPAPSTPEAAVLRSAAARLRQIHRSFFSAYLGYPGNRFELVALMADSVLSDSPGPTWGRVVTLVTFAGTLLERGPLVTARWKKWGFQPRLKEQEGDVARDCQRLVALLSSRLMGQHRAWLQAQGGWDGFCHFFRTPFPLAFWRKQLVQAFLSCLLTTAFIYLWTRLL
# [23] = non-specific 3'UTR reporter inhibition in Clone20-Shn3RL – cell-based, Renilla luciferase, cherry-picked, counter-screen for Shn3 inhibitor project, dose response (AID 624133); format: functional
# Estrogen receptor [24] = target: T1, Estrogen receptor; test: ERα coactivator recruitment enhancers – biochemical, TR-FRET, ERα LBD, dose response (AID 737)
# [25] = loss of viability in HepG2 cells – cell-based, CellTiter-Glo, cherry-picked, cytotoxicity control for Shn3 inhibitor project, dose response (AID 624134); format: functional
# [26] = reduction of Shn3 3'UTR-driven luciferase in osteoblasts – cell-based, Clone20 osteoblasts, firefly luciferase, cherry-picked, dose response (AID 624132); format: functional;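 further: firefly luciferase luminescence from reporter carrying the Shn3 3'UTR in osteoblasts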
# Sphingosine 1-phosphate receptor 4, sequence (O95977 whole entry): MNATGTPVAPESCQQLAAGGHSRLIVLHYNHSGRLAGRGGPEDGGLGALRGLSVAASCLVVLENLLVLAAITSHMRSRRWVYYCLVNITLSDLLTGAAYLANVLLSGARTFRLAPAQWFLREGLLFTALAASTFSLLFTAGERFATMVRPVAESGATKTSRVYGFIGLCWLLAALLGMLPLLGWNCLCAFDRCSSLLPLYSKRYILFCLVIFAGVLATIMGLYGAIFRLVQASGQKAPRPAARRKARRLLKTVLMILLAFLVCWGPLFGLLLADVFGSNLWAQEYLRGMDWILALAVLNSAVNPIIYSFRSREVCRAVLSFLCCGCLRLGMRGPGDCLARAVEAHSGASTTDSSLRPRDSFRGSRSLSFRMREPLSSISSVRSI
smiles,measurement,setting,value
O=C1c2cccc3c([N+](=O)[O-])ccc(c23)C(=O)N1CC1CCCO1 (configuration not stated),IC50,[1],1.3 µM (active)
same,IC50,[2],3.72 µM (active)
Cc1ccc(C(=O)ONc2ccc(N=NC(=O)c3ccccc3O)cc2)cc1,IC50,Estrogen receptor [3],8.44 µM (active)
same,IC50,[4],25.2 µM (active)
same,IC50,Estrogen receptor beta [5],< 0.023 µM (not active)
same,AC50,[6],1.51 µM (active)
same,IC50,[7],12.4 µM (active)
same,IC50,Estrogen receptor beta [8],8.2 µM (active)
Cc1cccc(OCCNC(=O)c2ccc(Oc3ccc(C(F)(F)F)cc3[N+](=O)[O-])cc2)c1,IC50,[9],> 35 µM (not active)
same,IC50,[10],> 35 µM (not active)
CSc1nc2ccc3nc(NC(=O)c4cccs4)sc3c2s1,EC50,H4,> 120 µM (not active)
same,IC50,[11],0.846 µM (active)
same,EC50,[12],25.5 µM (not active)
same,AC50,Cytochrome P450 2C9,0.355 µM (inconclusive)
same,AC50,Cytochrome P450 3A4,20 µM (inconclusive)
same,IC50,Orexin receptor type 2 [13],> 50 µM (inactive)
same,EC50,[14],33.2 µM (not active)
same,IC50,[15],> 49.7 µM (inactive)
same,IC50,CHO-K1,> 66.2 µM (inactive)
same,AC50,Cytochrome P450 2C19,2.82 µM (inconclusive)
same,IC50,Orexin receptor type 2 [16],> 88.8 µM (inactive)
same,IC50,[17],1.23 µM (active)
same,EC50,[18],35.9 µM (not active)
same,IC50,[19],> 100 µM (active)
same,IC50,[20],6.5 µM (active)
same,EC50,[21],6.88 µM (active)
same,EC50,[22],28 µM (active)
COc1ccccc1NC(=O)C1=C(C)NC(SCC(=O)c2ccc(Br)cc2)=C(C#N)C1c1ccco1 (configuration not stated),EC50,Bcl-2-like protein 10,6.24 µM (active)
CCOC(=O)N1CCN(S(=O)(=O)c2ccc(C(=O)Nc3nc4ccc(F)cc4s3)cc2)CC1,AC50,[23],3.38 µM (active)
same,EC50,Estrogen receptor [24],11.6 µM (active)
same,AC50,[25],> 70 µM (inactive)
same,AC50,[26],4.79 µM (active)
